Experimental findings from US8193364B2, “Insecticidal N-substituted (6-haloalkylpyridin-3-yl)-alkyl sulfoximines” (Dow AgroSciences, LLC., priority 2006, dated 2012) are described below.

What all share (format): in vivo
For experiment [1], the system named is Green Leafhopper (Nephotettix sp.). Nature of the experiment: Green leafhopper foliar spray assay on rice. The protocol: (§1) A foliar spray assay and a root-uptake systemic assay were performed on both brown planthopper and green leafhopper. Four-week-old rice seedlings were submerged in 3-cm depth of water in the bottom portion (high 5 cm, diameter 3 cm) of a 2-part glass cylinder (high 18 cm, diameter 3 cm). A metal screen was used to hold the seedlings within the bottom portion. Scotch tape was used to bind the two portions of the cylinder after setting up the seedlings. A metal cap was used to cover the cylinder. There were 4 cylinders for each treatment. The test compound was dissolved in acetone to make a 10,000 ppm stock solution. For the foliar spray assay, this stock solution was diluted with water to make 10, 2.5, 0.31, 0.08 and 0.02 ppm test solutions. A volume of 0.5 ml of a test solution or solvent blank as check was sprayed into the glass cylinder. For systemic test, the stock solution was incorporated at final test concentrations of 10, 2.5, 0.31, 0.08 and 0.02 ppm in the water in which rice seedlings were submerged. In both foliar spray and systemic tests, five laboratory-reared 3rd instar nymphs of brown planthopper or green leafhopper were introduced into each cylinder 3 hr after insecticide application. The treated test units were kept in a growth chamber with conditions set as followings: Temperature 28±0.5° C.; Relative humidity 70±0.5%; Photoperiod […].

For experiment [2], the system named is Brown Planthopper (Nilaparvata lugens). Nature of the experiment: Brown planthopper foliar spray assay on rice. The protocol: as §1
For experiment [3] the test system is unchanged. The experiment is described as follows: Brown planthopper root-uptake systemic assay on rice. The protocol: as §1

Regarding `CC(c1ccc(C(F)(F)F)nc1)S(C)(=O)=NC#N` (stereo not drawn) [Compound 2, [1-(6-trifluoromethylpyridin-3-yl)ethyl](methyl)-oxido-λ^4-sulfanylidenecyanamide], the “% Control at ppm against green leafhopper” value is “D (60-69)” in experiment [1] (0.02 ppm); “A (90-100)” in experiment [1] (0.08 ppm); “A (90-100)” in experiment [1] (0.31 ppm); “A (90-100)” in experiment [1] (2.5 ppm); “A (90-100)” in experiment [1] (10 ppm). The “% Control at ppm against brown planthopper” value is listed as “F (Less than 50)” in experiment [2] (0.02 ppm); “E (50-59)” in experiment [2] (0.08 ppm); “A (90-100)” in experiment [2] (0.31 ppm); “A (90-100)” in experiment [2] (2.5 ppm); “A (90-100)” in experiment [2] (10 ppm); “F (Less than 50)” in experiment [3] (0.02 ppm in water). The “% Control at ppm against brown planthopper” value in experiment [3] (0.08 ppm in water) is given as “C (70-79)”; in experiment [3] (0.31 ppm in water) it was “A (90-100)”; in experiment [3] (2.5 ppm in water), “A (90-100)”; in experiment [3] (10 ppm in water), “A (90-100)”.
